# Measured values as given in patent US12377095B2, “Use of ligustrazine nitrone derivatives in treatment and prevention of diabetic complication diseases” (QINGDAO HAILAN PHARMACEUTICALS CO., LTD., priority 2019, dated 2025).
# How the values were obtained:
# db/db mice = experiment: Serum EPO content of db/db mice; type: in vivo, mouse; parameters: serum EPO content: unit not given here; settings: for serum EPO content: 6 weeks, db/db group 257.19±67.80 ng/L
# Excerpt: db/db mice are congenital obese type 2 DKD mice with spontaneous mutations in the leptin receptor (Leptin receptor, Lepr) due to a point mutation in the leptin receptor gene GT located on chromosome 4. The course of polyphagia, polyuria, diabetes and hyperglycemia is similar to that of humans, and it is currently the most widely used type 2 spontaneous animal model of DKD. The db/db mice have a series of complications with the aggravation of diabetes. The main pathological changes of renal tissue are the expansion of the glomerular mesangial interstitium, the thickening of the glomerular basement membrane, and the excessive accumulation of extracellular matrix. However, the glomerular mesangium of db/db mice changes relatively slowly, and the glomerular mesangium will not be dissolved or nodular glomerulosclerosis, and there is no progressive renal insufficiency.
# Six-week-old db/db mice were purchased, and start the administration after adaptive feeding for 1 week (i.e., 7-week-old). TBN is administered twice a day (fixed by starting from 9:00-10:00 am and 3:00-4:00 pm, with an interval of 6 hours), and the positive control drug Losartan was administered once a day (fixed at 9:00-10:00 am) for 6 weeks.
# At the end of the experiment, after rats were anesthetized, the blood was taken from the abdominal aorta, allowed to stand for 1 h, centrifuged at 3000 rmp for 10 min and with the supernatant collected, and serum erythropoietin levels were measured according to the kit instructions.
# [1] = tested on: cisplatin-induced C57BL/6J mice; experiment: Serum erythropoietin in cisplatin-induced renal anemia C57BL/6J mice; type: in vivo, mouse
# Protocol: Modeling method: the animals were randomly divided into 5 groups, i.e., normal control group, model group, three treatment groups, wherein the normal control group was injected with equal volume of normal saline, the model group and three treatment groups were intraperitoneally injected with cisplatin (CDDP) 5 mg/kg once a week, for 4 weeks.
# The route of administration is intragastrical. TBN is administered twice a day (fixed at 9:00-10:00 am and 3:00-4:00 pm), and Roxadustat is administered once every two days (fixed at 9:00-10:00 am), for 4 weeks.
# At the end of the experiment, after rats were anesthetized, the blood was taken from the abdominal aorta, allowed to stand for 1 hour, centrifuged at 3000 rpm for 10 min, and stored in aliquots at −80° C. The content of erythropoietin in the serum was detected by using of a kit. After the administration, compared with the model group, the TBN treatment groups can increase the expression of erythropoietin to varying degrees.
# [2] = tested on: diabetic neuropathy model rats; experiment: Mechanical pain threshold (von Frey) in diabetic neuropathy model rats; type: in vivo, rat; settings: TBN 30 mg/kg twice a day
# Protocol: Modeling method: STZ was weighed and transferred to a centrifuge tube, wrapped with aluminum foil, kept away from light, and stored at −20° C. STZ sodium citrate solution is prepared when it is in need to use. The rats were fasted without water for 12 hours before injection. After weighing, the rats were injected with 55 mg/kg STZ intraperitoneally (STZ needs to be injected quickly, and the injection was completed within 10 minutes), and then returned to the cage to ensure that the rats had sufficient drinking water for 24 hours. Rats were injected with an equal volume of citrate buffer (pH 4.5). Four weeks after STZ injection, blood was collected from the tail vein, and the rats with blood glucose less than 16.7 mmol/L were eliminated; the taillick threshold temperature was increased, and the mechanical withdrawal threshold (MWT) was decreased, as the standard of a successful DPN model.
# The animals were randomly divided into 3 groups (n=7), namely the normal control group, the model group, and the TBN (30 mg/kg) group. The normal group and the model group were injected with an equal volume of normal saline, and TBN was administered twice a day (fixed at 9:00-10:00 am and 3:00-4:00 pm), continuously for 4 weeks.
# Experiment for detecting mechanical pain threshold: In a quiet environment, the rats were individually placed in a porous steel wire cage. […]
# STZ-induced DKD rats = experiment: Blood glucose and urine protein in STZ-induced DKD rats; type: in vivo, rat
# Protocol: SD rats (200±10 g) were used as model animals, which were fasted for 12 h before injection. STZ was dissolved in citrate buffer at 1% concentration, and rats were fasted and intraperitoneally injected with 55 mg/kg STZ and placed in the cage, the rats being ensured with adequate water intake for 24 h. STZ injections need to be fast and complete within 10 minutes of injection. The normal control group was injected with an equal volume of pH 4.5 citric acid-sodium citrate buffer. The state of the animals (multiple drinking and polyuria) was observed. After 3 weeks of STZ injection, blood was collected from the tail vein, and fasting blood glucose ≥16.7 mmol/L was measured as the standard for diabetic nephropathy in rats.
# DKD rats were randomly assigned to 6 groups and given with different drugs. After 6 weeks of administration, the experiment was terminated and the protective effect of the drug on DKD rats was observed.
# During the experiment, the blood glucose of the rats was monitored after the completion of the modeling and after the completion of the administration, and urine protein was collected once at 24 hour.
# STZ-induced SHR rats = experiment: HE kidney morphology of STZ-induced SHR rats; type: in vivo, rat; settings: 60 mg/kg
# Protocol: 6 W-age SHR rats were abstained from food but not water for 12 h before injection, and then intraperitoneally injected with 55 mg/kg STZ after weighing (STZ required for fast injection, to be completed within 10 min), then put back to the cage to ensure that rat has sufficient drinking water in the period of 24 h, and the rats of normal control group were injected with citric acid buffer (pH 4.5) in the same volume. After 3 weeks of STZ injection, retinal venous blood was collected, and blood glucose ≥16.7 mmol/L was used as a molding standard, where the model of SHR rats that meet the above criteria is considered successful.
# The route of administration is intragastrical, TBN is administered twice a day (fixed at 9:00-10:00 am and 3:00-4:00 pm), and Losartan is administered once a day (fixed at 9:00-10:00 am), continuously for 6 weeks.
# The process is the same as in Example 9.
compound,measurement,setting,value
Cc1nc(C)c(/C=[N+](\[O-])C(C)(C)C)nc1C [TBN],serum EPO content,db/db mice; 10 mg/kg,265.04±79.32
same,serum EPO content,db/db mice; 30 mg/kg,288.80±36.78
same,increase in serum EPO content compared with positive control drug,db/db mice; each dose group of TBN,stronger than that of the positive control drug
same,serum EPO level,"db/db mice; spontaneous db/db mice, TBN administration",tendency to increase
same,expression/content of erythropoietin vs model group,"[1]; TBN treatment groups (30, 60 mg/kg), to varying degrees, dose dependence",increase
same,efficacy on EPO content compared with positive control drug,[1]; high-dose group (60 mg/kg) vs Roxadustat 10 mg/kg,stronger than that of the positive control drug
same,mechanical pain threshold vs model group,[2]; 2 weeks after administration (6 weeks after STZ),no statistically significant difference
same,mechanical pain threshold vs model group,"[2]; 4 weeks after administration (8 weeks after STZ), P<0.05",increased
same,urinary protein content in urine,"STZ-induced DKD rats; 24 hour urine, DKD rats",significantly reduced
same,blood glucose,STZ-induced DKD rats; after 6 weeks of treatment,significantly decreased
same,renal pathological changes (H&E),STZ-induced SHR rats,improvement
